Experimental data reported in PMC3287420 (Nature chemical biology, 2011).
One block for each compound: values may come before it.

How the values were obtained:
[1] = biological target: T1, GST-LRRK2 [A2016T] (1326-2517) (Homo sapiens, UniProt Q5S007, A2016T); conditions: cited from earlier work
T1 sequence (Q5S007 1326-2527 A2016T): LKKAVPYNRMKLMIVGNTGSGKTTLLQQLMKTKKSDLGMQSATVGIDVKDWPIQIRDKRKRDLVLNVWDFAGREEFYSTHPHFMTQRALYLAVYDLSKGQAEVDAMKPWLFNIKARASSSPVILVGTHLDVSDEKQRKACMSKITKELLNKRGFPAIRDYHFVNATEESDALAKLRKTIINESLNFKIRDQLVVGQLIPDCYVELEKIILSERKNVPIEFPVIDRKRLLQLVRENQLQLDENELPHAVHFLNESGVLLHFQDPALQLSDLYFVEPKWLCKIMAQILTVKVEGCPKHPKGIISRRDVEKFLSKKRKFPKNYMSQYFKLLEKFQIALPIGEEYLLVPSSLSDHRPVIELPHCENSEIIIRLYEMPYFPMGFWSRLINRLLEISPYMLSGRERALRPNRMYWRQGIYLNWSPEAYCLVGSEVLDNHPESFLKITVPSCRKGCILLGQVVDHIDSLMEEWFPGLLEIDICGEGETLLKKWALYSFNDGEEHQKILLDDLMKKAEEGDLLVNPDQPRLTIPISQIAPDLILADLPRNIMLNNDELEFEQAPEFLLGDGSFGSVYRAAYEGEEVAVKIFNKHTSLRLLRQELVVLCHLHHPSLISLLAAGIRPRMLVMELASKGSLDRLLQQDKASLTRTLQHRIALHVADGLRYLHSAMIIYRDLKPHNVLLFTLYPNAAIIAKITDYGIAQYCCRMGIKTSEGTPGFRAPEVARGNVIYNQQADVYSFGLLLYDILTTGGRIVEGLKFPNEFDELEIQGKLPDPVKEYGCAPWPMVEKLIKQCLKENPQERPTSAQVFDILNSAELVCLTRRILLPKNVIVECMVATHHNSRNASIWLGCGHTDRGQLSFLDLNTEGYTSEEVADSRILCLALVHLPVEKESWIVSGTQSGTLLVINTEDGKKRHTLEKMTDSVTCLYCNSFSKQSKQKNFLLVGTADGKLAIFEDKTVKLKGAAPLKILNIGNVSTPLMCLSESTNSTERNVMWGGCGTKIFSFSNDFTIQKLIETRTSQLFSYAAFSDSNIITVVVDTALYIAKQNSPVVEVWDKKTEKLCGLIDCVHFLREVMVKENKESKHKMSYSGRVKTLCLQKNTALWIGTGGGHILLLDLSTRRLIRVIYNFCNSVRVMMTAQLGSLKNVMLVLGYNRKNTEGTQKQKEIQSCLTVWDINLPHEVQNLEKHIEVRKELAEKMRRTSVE

GFP-LRRK1 = assay: Fluorescence microscopy of LRRK1 localisation, HEK 293 stable cells; assay type: cell-based; conditions: 1 µM, 2 hours
MAPK7 = MAPK7 (Homo sapiens, UniProt Q13164); assay: KiNativ; assay type: binding; conditions: hPBMC and mouse brain tissue profiling
Chain of MAPK7 (Q13164 whole entry): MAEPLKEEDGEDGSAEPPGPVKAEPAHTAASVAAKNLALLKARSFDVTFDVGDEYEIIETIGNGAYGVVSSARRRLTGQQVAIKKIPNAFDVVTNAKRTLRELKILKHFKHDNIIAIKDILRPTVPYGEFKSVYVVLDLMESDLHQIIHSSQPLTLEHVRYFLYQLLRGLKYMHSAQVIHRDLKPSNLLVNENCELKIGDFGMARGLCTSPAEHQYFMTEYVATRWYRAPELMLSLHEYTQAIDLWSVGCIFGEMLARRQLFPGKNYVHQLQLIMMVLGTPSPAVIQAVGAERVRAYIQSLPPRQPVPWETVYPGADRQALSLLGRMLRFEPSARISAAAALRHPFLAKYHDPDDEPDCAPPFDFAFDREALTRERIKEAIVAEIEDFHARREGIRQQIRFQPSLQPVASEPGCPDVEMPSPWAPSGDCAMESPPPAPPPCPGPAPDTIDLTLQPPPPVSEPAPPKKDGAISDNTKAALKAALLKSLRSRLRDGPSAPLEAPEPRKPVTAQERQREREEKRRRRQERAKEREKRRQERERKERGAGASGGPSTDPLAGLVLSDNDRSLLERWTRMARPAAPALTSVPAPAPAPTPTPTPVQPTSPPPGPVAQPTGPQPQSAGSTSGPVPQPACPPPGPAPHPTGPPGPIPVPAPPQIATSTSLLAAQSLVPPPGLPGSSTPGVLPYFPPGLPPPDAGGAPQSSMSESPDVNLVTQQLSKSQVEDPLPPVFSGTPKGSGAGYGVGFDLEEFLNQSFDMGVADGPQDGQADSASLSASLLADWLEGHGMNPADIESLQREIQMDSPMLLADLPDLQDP

MYLK = MYLK (Homo sapiens, UniProt Q15746); assay: Invitrogen SelectScreen biochemical assay
Chain of MYLK (Q15746 whole entry, species assumed): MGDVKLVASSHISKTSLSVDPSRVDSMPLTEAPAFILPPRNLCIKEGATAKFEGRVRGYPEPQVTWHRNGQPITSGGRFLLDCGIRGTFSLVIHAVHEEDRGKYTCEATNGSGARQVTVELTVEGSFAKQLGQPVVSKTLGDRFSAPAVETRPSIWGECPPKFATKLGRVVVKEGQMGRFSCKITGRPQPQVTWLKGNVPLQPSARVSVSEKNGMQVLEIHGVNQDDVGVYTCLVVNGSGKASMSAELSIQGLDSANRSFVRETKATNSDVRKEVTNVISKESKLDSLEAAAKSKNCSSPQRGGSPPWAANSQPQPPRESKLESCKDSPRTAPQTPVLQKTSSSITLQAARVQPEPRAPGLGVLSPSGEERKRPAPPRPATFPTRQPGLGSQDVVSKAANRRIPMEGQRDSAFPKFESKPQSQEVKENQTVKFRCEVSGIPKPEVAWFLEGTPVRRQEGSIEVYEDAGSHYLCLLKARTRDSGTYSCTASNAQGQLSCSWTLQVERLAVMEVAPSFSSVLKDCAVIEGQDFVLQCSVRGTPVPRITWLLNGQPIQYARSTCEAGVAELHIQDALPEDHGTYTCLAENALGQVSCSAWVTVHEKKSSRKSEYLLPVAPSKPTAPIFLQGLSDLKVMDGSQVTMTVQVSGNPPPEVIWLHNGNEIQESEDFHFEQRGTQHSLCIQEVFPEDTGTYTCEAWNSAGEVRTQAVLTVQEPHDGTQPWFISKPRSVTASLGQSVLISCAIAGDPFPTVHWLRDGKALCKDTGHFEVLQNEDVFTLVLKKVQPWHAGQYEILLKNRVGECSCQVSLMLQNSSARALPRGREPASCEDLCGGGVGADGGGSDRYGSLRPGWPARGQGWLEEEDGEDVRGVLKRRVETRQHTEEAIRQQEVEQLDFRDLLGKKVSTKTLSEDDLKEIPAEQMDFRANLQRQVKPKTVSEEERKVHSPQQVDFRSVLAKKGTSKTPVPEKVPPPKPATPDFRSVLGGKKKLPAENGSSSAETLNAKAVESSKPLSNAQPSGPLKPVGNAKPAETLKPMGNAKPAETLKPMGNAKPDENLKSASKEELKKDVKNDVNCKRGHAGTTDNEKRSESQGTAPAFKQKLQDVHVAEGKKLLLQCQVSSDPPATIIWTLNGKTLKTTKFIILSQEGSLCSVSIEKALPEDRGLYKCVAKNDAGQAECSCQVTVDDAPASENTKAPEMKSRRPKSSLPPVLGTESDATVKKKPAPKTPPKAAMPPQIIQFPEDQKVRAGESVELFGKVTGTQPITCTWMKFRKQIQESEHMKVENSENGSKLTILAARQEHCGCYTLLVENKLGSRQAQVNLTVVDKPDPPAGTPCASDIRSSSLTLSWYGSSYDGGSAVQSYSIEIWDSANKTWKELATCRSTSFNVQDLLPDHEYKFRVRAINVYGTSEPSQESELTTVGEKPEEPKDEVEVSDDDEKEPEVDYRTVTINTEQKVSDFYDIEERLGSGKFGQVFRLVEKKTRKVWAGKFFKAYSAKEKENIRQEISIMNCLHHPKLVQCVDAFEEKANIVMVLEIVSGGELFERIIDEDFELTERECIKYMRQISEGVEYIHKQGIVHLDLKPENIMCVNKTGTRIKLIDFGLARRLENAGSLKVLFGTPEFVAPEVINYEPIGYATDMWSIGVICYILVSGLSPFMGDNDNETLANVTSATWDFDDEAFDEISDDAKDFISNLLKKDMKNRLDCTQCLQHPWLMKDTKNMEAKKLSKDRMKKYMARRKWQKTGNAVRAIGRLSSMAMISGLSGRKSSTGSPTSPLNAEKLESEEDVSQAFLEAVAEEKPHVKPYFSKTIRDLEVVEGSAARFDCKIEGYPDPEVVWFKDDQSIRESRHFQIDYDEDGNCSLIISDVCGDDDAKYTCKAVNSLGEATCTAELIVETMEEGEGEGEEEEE

[2] = test system: kinase inactive LRRK2 {D2017A]; assay type: cell-based; conditions: 1 µM, 2 h
GFP-LRRK2 [A2016T] [3] = assay: Fluorescence microscopy of LRRK2 localisation, HEK 293 stable cells; assay type: cell-based; conditions: 1 µM, 2 h time course
DCLK2 = biological target: T2, DCLK2 (Homo sapiens, UniProt Q8N568); assay: Invitrogen SelectScreen biochemical assay
T2 sequence (Q8N568 1-766): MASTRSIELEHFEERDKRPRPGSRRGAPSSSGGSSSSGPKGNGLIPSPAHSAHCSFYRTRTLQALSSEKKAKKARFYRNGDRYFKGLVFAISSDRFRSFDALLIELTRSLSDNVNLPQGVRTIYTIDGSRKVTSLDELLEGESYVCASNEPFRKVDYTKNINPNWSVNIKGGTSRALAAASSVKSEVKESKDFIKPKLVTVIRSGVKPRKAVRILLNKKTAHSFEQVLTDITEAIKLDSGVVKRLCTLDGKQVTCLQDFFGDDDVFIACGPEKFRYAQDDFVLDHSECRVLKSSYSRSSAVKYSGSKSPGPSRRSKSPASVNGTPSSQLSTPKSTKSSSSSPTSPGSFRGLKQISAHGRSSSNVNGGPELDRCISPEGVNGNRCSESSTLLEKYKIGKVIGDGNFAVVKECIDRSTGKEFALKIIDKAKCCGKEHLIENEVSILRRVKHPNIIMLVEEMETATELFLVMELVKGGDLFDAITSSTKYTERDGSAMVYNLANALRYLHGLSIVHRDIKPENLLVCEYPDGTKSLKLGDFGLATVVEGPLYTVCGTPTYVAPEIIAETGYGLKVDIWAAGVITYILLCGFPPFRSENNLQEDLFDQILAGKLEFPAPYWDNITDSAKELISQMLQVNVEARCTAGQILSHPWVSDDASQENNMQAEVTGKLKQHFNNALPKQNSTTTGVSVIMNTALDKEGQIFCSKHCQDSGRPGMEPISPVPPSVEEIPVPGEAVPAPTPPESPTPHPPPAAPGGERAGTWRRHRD

DCLK1 = assay: KiNativ; assay type: binding; conditions: hPBMC and mouse brain tissue profiling
GFP-LRRK2 [A2016T] [4] = test system: GFP-LRRK2 [A2016T]
Pharmacokinetics in mice = assay type: in vivo; conditions: mouse, plasma, po, 10 mg/kg
PLK1 = PLK1 (Homo sapiens, UniProt P53350); assay: Invitrogen SelectScreen biochemical assay
Chain of PLK1 (P53350 whole entry): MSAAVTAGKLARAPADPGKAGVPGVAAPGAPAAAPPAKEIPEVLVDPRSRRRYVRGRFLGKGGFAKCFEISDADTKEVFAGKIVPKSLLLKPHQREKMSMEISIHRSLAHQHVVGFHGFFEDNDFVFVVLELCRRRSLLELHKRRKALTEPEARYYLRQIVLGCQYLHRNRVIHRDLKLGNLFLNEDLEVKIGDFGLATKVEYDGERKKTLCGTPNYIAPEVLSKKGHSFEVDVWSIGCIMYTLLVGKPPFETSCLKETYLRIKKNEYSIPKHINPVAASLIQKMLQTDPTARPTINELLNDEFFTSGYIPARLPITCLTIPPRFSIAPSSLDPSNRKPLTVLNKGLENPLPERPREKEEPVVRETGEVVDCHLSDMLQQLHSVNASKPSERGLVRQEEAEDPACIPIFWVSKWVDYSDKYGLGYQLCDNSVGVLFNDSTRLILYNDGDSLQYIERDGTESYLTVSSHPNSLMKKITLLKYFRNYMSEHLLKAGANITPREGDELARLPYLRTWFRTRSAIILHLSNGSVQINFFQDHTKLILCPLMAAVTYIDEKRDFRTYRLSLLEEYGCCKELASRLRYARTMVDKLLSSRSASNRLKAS

MKNK2 = MKNK2 (Homo sapiens, UniProt Q9HBH9); assay: Invitrogen SelectScreen biochemical assay
Chain of MKNK2 (Q9HBH9 whole entry, species assumed): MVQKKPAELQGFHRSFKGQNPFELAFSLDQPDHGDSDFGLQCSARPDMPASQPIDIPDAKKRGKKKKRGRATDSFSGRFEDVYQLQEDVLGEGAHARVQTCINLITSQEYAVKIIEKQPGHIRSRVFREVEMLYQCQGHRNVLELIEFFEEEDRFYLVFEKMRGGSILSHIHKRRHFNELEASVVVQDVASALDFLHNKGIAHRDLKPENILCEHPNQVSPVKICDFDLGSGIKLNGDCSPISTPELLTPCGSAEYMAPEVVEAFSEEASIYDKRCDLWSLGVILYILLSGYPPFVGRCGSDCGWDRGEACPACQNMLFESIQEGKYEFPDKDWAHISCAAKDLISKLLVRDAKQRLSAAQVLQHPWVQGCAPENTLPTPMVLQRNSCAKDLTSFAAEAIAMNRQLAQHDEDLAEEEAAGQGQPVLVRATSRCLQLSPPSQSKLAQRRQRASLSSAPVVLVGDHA

NUAK1 = biological target: T3, NUAK1 (Homo sapiens, UniProt O60285); assay: Invitrogen SelectScreen biochemical assay
T3 sequence (O60285 1-661): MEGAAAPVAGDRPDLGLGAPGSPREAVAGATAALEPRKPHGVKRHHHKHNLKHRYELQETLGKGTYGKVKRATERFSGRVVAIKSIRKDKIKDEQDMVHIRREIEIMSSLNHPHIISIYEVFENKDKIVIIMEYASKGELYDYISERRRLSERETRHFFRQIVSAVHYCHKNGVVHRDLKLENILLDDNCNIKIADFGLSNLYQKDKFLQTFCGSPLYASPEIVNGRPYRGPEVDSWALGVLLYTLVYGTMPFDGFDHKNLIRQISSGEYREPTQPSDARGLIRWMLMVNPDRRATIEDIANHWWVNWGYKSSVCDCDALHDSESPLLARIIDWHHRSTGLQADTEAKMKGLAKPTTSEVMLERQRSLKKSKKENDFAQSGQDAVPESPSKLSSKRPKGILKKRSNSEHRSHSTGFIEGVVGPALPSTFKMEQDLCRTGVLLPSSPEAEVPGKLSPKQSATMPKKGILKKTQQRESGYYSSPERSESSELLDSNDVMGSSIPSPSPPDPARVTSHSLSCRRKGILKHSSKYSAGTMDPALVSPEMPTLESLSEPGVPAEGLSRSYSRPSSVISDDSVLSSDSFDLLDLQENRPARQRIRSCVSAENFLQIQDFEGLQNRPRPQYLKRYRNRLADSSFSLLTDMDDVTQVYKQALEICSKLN

AURKB = AURKB (Homo sapiens, UniProt Q96GD4); assay: Invitrogen SelectScreen biochemical assay
Chain of AURKB (Q96GD4 whole entry, species assumed): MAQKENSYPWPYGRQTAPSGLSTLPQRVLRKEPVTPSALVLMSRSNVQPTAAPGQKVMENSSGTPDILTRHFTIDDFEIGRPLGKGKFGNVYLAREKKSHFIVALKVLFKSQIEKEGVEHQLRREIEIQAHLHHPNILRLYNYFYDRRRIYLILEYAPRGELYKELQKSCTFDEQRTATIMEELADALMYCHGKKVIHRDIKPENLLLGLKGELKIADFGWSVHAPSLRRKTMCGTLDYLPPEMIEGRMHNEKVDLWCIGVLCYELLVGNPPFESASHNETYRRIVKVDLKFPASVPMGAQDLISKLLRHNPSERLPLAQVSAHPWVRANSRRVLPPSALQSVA

endogenous LRRK2 = conditions: mice, 100 mg/kg intraperitoneal, 1 h and 2 h time points
CHEK2 [5] = biological target: T4, CHEK2 (Homo sapiens, UniProt O96017); assay: Invitrogen SelectScreen biochemical assay
Target sequence in this assay (O96017 whole entry, species assumed): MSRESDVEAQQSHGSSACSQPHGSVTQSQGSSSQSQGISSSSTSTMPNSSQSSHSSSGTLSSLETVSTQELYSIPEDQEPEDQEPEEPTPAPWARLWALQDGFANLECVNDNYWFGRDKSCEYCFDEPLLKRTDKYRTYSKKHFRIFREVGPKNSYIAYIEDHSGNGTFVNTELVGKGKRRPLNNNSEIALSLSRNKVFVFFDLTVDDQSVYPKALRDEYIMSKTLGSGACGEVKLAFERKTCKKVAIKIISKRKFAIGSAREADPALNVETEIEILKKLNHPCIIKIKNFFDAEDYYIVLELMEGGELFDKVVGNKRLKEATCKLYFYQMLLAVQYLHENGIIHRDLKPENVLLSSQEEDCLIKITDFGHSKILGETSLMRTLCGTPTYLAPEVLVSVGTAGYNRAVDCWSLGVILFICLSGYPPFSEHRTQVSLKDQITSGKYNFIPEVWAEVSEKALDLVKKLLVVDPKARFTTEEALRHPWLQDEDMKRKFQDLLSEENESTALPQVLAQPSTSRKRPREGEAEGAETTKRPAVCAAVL

LRRK2 = assay type: binding; conditions: hPBMC and mouse brain tissue profiling
GFP-LRRK2 = assay: Fluorescence microscopy of LRRK2 localisation, HEK 293 stable cells; assay type: cell-based; conditions: 1 µM, 2 h time course
GFP-LRRK2[A2016T+G2019S] [6] = assay: as above; assay type: cell-based; conditions: 1 µM, 2 h time course
CHEK2 [7] = biological target: T4, CHEK2; assay: KiNativ; assay type: binding
Target sequence in this assay (O96017 whole entry): as the sequence (O96017 whole entry, species assumed) above

GFP-LRRK2[A2016T+G2019S] [8] = test system: GFP-LRRK2[A2016T+G2019S]

Structure (SMILES): Cc1cncc2cccc(S(=O)(=O)N3CCCNC[C@@H]3C)c12 [H-1152]
fold less sensitive to inhibitor [1]: 32 fold

inhibition in KiNativ profiling (MAPK7): confirmed inhibition
IC50 (MYLK): > 1000 nM
IC50 (DCLK2): 45 nM
AUC(0-inf) (Pharmacokinetics in mice): 14800 ng·h/mL
bioavailability (Pharmacokinetics in mice): 49.3%
IC50 (PLK1): > 1000 nM
IC50 (MKNK2): > 1000 nM
IC50 (NUAK1): > 1000 nM
IC50 (AURKB): > 1000 nM
IC50 (CHEK2 [5]): > 1000 nM
IC50 (CHEK2 [7]): > 1000 nM
Structure (SMILES): COc1cc(C(=O)N2CCC(N3CCN(C)CC3)CC2)ccc1Nc1ncc2c(n1)N(C)c1ccccc1C(=O)N2C [LRRK2-IN-1]
localization of LRRK1 (GFP-LRRK1): does not change
dephosphorylation of Ser910/Ser935 [2]: did not induce significant dephosphorylation
localization of LRRK2 (GFP-LRRK2 [A2016T] [3]): did not affect the localization
inhibition in KiNativ profiling (DCLK1): confirmed inhibition
dephosphorylation of Ser910/Ser935 (GFP-LRRK2 [A2016T] [4]): failed to induce dephosphorylation
Ser910/Ser935 dephosphorylation of LRRK2 in the kidney (endogenous LRRK2): complete Ser910/Ser935 dephosphorylation
dephosphorylation of LRRK2 Ser910 or Ser935 in brain (endogenous LRRK2): no dephosphorylation
inhibition in KiNativ profiling (LRRK2): confirmed inhibition
localization of LRRK2 (accumulation into aggregate structures) (GFP-LRRK2): significant accumulation
localization of LRRK2 (GFP-LRRK2[A2016T+G2019S] [6]): did not affect the localization
dephosphorylation of Ser910/Ser935 (GFP-LRRK2[A2016T+G2019S] [8]): failed to induce dephosphorylation

Structure (SMILES): CCN(CC)CCNC(=O)c1c(C)[nH]c(/C=C2\C(=O)Nc3ccc(F)cc32)c1C [sunitinib]
fold less sensitive to inhibitor [1]: 12 fold
